Laboratory results reported in patent publication US12043602B2, “Fendiline derivatives” (The Board of Regents of the University of Texas System, priority 2019, dated 2024).
Several values for one entry are separate records, joined by “and”; a condition that tells them apart may be missing. Equal values may be shown once. Read-outs that look alike come from different tables or passages of the source.

Tests used:
Assay type in all cases: cell-based
[1] = system: MPanc96 (Mut) pancreatic tumor cells; assay: CyQUANT proliferation assay
Method: (§1) Madine Darby Canine Kidney epithelial cells (MDCK) stably co-expressing mGFP-tagged full length oncogenic mutant K-Ras (GFP—K-RASG12V) or mGFP-LactC2 (peptide probe for phosphatidylserine) and mCherry-tagged to the amino acids 179-189 of H-RasC181S, C184S (mCherry-CAAX, localizes primarily to endomembranes) were grown in DMEM-high glucose/sodium pyruvate/10% FBS. The medium was supplemented with 1× Penicillin/Streptomycin for fluorescence microscopy assays, to avoid any microbial contamination from the test compounds added. KLE and Hec50 cells were maintained in DMEM-F-12 medium supplemented with 10% FBS. Hec-1A and Hec-1B cells were grown in McCoy's 5a medium supplemented with 10% FBS. ESS-1 cells were grown in RPMI 1640 medium supplemented with 20% FBS. MPanc96 cells were grown in DMEM supplemented with 10% FBS, MiaPaCa-2 cells in DMEM supplemented with 10% FBS and 2.5% horse serum and all other cell lines were grown in RPMI 1640 supplemented with 10% FBS. All cancer cell media were supplemented with ×Penicillin/Streptomycin. All cell lines were grown at 37° C. with 5% CO2.
(§2) Cells were seeded in 96-well plates. After 24 h, fresh growth medium supplemented with 0.1% vehicle (DMSO), or various concentrations of drugs was added and cells were grown for 72 h. Cell numbers were quantified using the CyQUANT® Cell Proliferation Assay Kit (Molecular Probes, Life Technologies), according to the manufacturer's protocol. Fluorescence measurement was used as a measure of live cell number.

mGFP-K-RASG12V = mGFP-K-RASG12V (Homo sapiens (Human), UniProt P01116, G12V); assay: K-Ras mislocalization assay (confocal microscopy, Manders coefficient); set-up: key to Emax: Manders coefficient: fraction of mCherry-CAAX co-localizing with GFP-K-Ras; details: for IC50 / Emax: MDCK cells; for Emax: maximal effect, Manders coefficient
How it was run: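 Readout is the Manders coefficient: share of mCherry-CAAX overlapping mGFP-K-RASG12V in confocal images, proportional to K-Ras mislocalization. Stable MDCK co-expressing lines were exposed 48 h to various drug concentrations or 0.1% DMSO vehicle, then paraformaldehyde-fixed.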

[2] = system: ESS-1 (WT) endometrial tumor cells; assay: CyQUANT proliferation assay; set-up: key: NE—Not efficacious; details: 72 h
Method: as §1, §2

[3] = system: KLE (WT) endometrial tumor cells; assay: CyQUANT proliferation assay; set-up: key: NE—Not efficacious; details: 72 h
Method: as §1, §2

[4] = system: SK-CO-1 (Mut) colon tumor cells; assay: CyQUANT proliferation assay; details: Homo sapiens
Method: as §1, §2

[5] = system: CaCO-2 (WT) colon tumor cells; assay: CyQUANT proliferation assay; details: Homo sapiens
Method: as §1, §2

[6] = system: Hec1A (Mut) endometrial tumor cells; assay: CyQUANT proliferation assay; details: Homo sapiens, HEC-1-A
Method: as §1, §2

[7] = system: NCI-H1299 (WT) lung tumor cells; assay: CyQUANT proliferation assay; details: Homo sapiens
Method: as §1, §2

[8] = system: Hec1B (Mut) endometrial tumor cells; assay: CyQUANT proliferation assay; details: Homo sapiens, HEC-1B
Method: as §1, §2

[9] = system: NCI H522 (WT) lung tumor cells; assay: CyQUANT proliferation assay; details: Homo sapiens
Method: as §1, §2

[10] = system: Ishikawa (WT) endometrial tumor cells; assay: CyQUANT proliferation assay; set-up: key to IC50 proliferation Ishikawa (WT): NE—Not efficacious; details: for IC50: Homo sapiens, Ishikawa
Method: as §1, §2

[11] = MPANC96, 72 h, read-out: IC50 proliferation MPanc96 (Mut)
[12] = MPANC96, Table 11, pancreatic, read-out: IC50 (μM) MPanc96 (Mut)
[13] = 48 h treatment, read-out: IC50 (μM), KRASG12V mislocalization
[14] = SK-CO-1, 72 h, read-out: IC50 proliferation SK-CO-1 (Mut)
[15] = SK-CO-1, Table 11, colon, read-out: IC50 (μM) SK-CO-1 (Mut)
[16] = Caco-2, 72 h, read-out: IC50 proliferation CaCO-2 (WT)
[17] = Caco-2, Table 11, colon, read-out: IC50 (μM) Caco-2 (WT)
[18] = 72 h, read-out: IC50 proliferation Hec1A (Mut)
[19] = Table 11, endometrial, read-out: IC50 (μM) Hec1A (Mut)
[20] = NCI-H1299, 72 h, read-out: IC50 proliferation NCI-H1299 (WT; N Mut in Table 6)
[21] = NCI-H1299, Table 11, lung, read-out: IC50 (μM) NCI H1299 (WT)
[22] = 72 h, read-out: IC50 proliferation Hec1B (Mut)
[23] = Table 11, endometrial, read-out: IC50 (μM) Hec1B (Mut)
[24] = NCI-H522, 72 h, read-out: IC50 proliferation NCI H522 (WT)
[25] = NCI-H522, Table 11, lung, read-out: IC50 (μM) NCI H522 (WT)
[26] = Table 11, endometrial, read-out: IC50 (μM) Ishikawa (WT)

Row | SMILES | IC50 [1, 11] [µM] | IC50 [1, 12] [µM] | IC50 (mGFP-K-RASG12V; [13]) [µM] | Emax (mGFP-K-RASG12V; 48 h) | IC50 proliferation ESS-1 (WT) [2] | IC50 proliferation KLE (WT) [3] | IC50 [4, 14] [µM] | IC50 [4, 15] [µM] | IC50 [5, 16] [µM] | IC50 [5, 17] [µM] | IC50 [6, 18] [µM] | IC50 [6, 19] [µM] | IC50 [7, 20] [µM] | IC50 [7, 21] [µM] | IC50 [8, 22] [µM] | IC50 [8, 23] [µM] | IC50 [9, 24] [µM] | IC50 [9, 25] [µM] | IC50 [10, 26] [µM] | IC50 proliferation Ishikawa (WT) ([10]; 72 h) | also measured
1 | COc1ccc([C@@H](C)N(CC=C(c2ccccc2)c2ccccc2)CCN2CCCC2)cc1 [NY0331, (R)-N-(1-(4-methoxyphenyl)ethyl)-3,3-diphenyl-N-(2-(pyrrolidin-1-yl)ethyl)prop-2-en-1-amine] | 3.81 | 3.8 | 0.3 | 0.85 ± 0.04 |  |  |  |  |  |  |  |  |  |  |  |  |  |  |  |  | fold potency loss / decreased potency (mGFP-K-RASG12V; versus 12f (NY0244)): 3 fold
2 | COc1ccc([C@@H](C)N(CC=C(c2ccccc2)c2ccccc2)CCCN2CCN(C)CC2)cc1 [NY0335, (R)-N-(1-(4-methoxyphenyl)ethyl)-N-(3-(4-methylpiperazin-1-yl)propyl)-3,3-diphenylprop-2-en-1-amine] | 4.18 | 4.2 | 0.02 |  | NE | NE | 3.52 | 3.5 | 4.43 | 4.4 | 2.34 | 2.3 | 8.12 | 8.2 ± 1 | 3.89 | 3.9 | 23.5 | 23.5 ± 3.2 | 11 |  | IC50 (mGFP-K-RASG12V; 48 h, read-out: KRAS mislocalization potency): 0.02 µM; Emax (mGFP-K-RASG12V; 48 h, listed as 22): 0.81; Emax (mGFP-K-RASG12V; 48 h, listed as NY335): 0.81 ± 0.01; IC50 ([10]; 72 h, read-out: IC50 proliferation Ishikawa (WT)): 11 µM
3 | COc1ccc([C@@H](C)N(CC=C(c2ccccc2)c2ccccc2)CCN2CCN(C)CC2)cc1 [NY0244, (R)-N-(1-(4-methoxyphenyl)ethyl)-N-(2-(4-methylpiperazin-1-yl)ethyl)-3,3-diphenylprop-2-en-1-amine] | 4.22 | 4.2 | 0.1 | 0.75 ± 0.01 | NE | NE | 3.28 | 3.3 | 5.1 | 5.1 | 2.6 | 2.6 | 8.24 | 8.2 | 3.28 | 3.3 | 28.2 | 28.2 | > 30 | NE | Emax (mGFP-K-RASG12V; 48 h, listed as 12f): 0.75 and 0.75 ± 0.01; fold increase in KRAS mislocalization potency (mGFP-K-RASG12V; versus hit 7): 5 fold
4 | CC(NCCC(c1ccccc1)c1ccccc1)c1ccccc1 (stereo not shown) [Fendiline] | 10.8 | 10.8 |  |  | NE | NE | 7.77 | 7.8 | 15.4 | 14.5 | 9.48 | 9.48 | 24.2 | 24.3 ± 2.1 | 9.8 | 9.8 | 29.6 | 29.6 ± 1.2 | > 30 | NE | 
